In data set [1] the test system is Seasonal Allergic Rhinitis. Briefly: Efficacy and safety by intranasal administration, Seasonal Allergic Rhinitis Environmental Exposure Chamber study. Format: in vivo, human. Conditions: patients, intranasal 100, 200 or 400 μg BID, 2 weeks, versus placebo. Here is the method:
The present study was conducted to determine the efficacy and safety of the compound of the present invention via intranasal route in Seasonal Allergic Rhinitis model. This was a single-centered, randomized, double-blind, placebo-controlled parallel group study.
OBJECTIVE: The objective of the study was to assess the efficacy and safety of the compound of the present invention via intranasal route compared to placebo in alleviating the signs and symptoms of Seasonal Allergic Rhinitis in Environmental Exposure Chamber Model (EEC) after 2 weeks of treatment.
METHODS: In this study, male and female patients aged 18-65 years with history of seasonal allergic rhinitis and positive skin prick test to Dactylis glomerate within 12 months prior to screening and with TNSS score of >6 at least once during the 2 hour-screening EEC were included. Total 159 patients were included in the study and total 154 patients were considered for efficacy analysis. […]
Primary efficacy endpoint was change in TNSS (Total Nasal Symptom Score) in a 4-hour environmental challenge with Dactylis glomerate pollen in an EEC from baseline to Day 15/16. The TNSS was calculated as summation of 4 point severity scale (0=None, 1=Mild, 2=Moderate and 3=Severe) for each symptom (Nasal congestion, Rhinorrhea, Nasal itching and Sneezing). […]

Data set [2] relates to ovalbumin-induced increase in intranasal pressure. Briefly: Ovalbumin-induced increase in intranasal pressure. The format is in vivo, guinea pigs. Conditions: intranasal instillation 24 hr and 2 hr prior to ovalbumin challenge; FIG. 2. Here is the method:
Animals sensitized with ovalbumin as described above were used for experiments determining intranasal pressure. Intranasal instillation of compound of formula I, fluticasone propionate or placebo was done 24 hr and 2 hr prior to challenge with ovalbumin. The nasopharynx was catheterized with a PE cannula, one end of which was attached to pressure transducer and other to the nebulizer. Ovalbumin (5%) was nebulized into the nasal cavity for 10 min. The changes in intranasal pressure were recorded for following 45 min and differential pressure (dP) was calculated.

Data set [3] can be described thus: Sephadex-induced lung edema. The format is in vivo, SD rats. Conditions: Sprague-Dawley, rat, thymus, other: intratracheal; i.t., 24 hrs and 2 hrs prior to Sephadex; read-out: ED50 Thymus involution. Here is the method:
(§1) Sephadex® G-200 was prepared in sterile saline (10 mg/ml) and allowed to swell for at least 3 days at room temperature. Test compounds were administered intratracheally at 24 hrs and 2 hrs prior to intratracheal administration of Sephadex® (5 mg/kg) under light ether anesthesia. Vehicle control animals were administered vehicle instead of Sephadex®. At 24 hr after Sephadex® instillation, lung and thymus were excised from individual animals and weighed. Wet weights of lungs and thymus were corrected for 100 g of initial body weight. The percentage increase in lung weight caused by Sephadex® and its inhibitions by the compounds, were calculated. The percentage inhibitions of thymus compared to vehicle control group were also calculated

Data set [4] relates to Sephadex-induced lung edema. Briefly: Sephadex-induced lung edema. The format is in vivo, SD rats. Conditions: Rattus norvegicus; i.t., 24 hrs and 2 hrs prior to Sephadex; read-out: ED50 Lung edema inhibition. As to the method:
as §1

For the next data set, the system named is cotton pellet granuloma. Description: Cotton pellet granuloma test. The format is in vivo, SD rats. As to the method: SD rats were used for assessing anti-inflammatory activity of test compound using cotton pellet granuloma method. Sterilized cotton pellets weighing 20 mg were prepared. Test compounds were dissolved in acetone so as to get the required quantity for each cotton pellet in 500 μl. Different pellets were impregnated with 500 μl of acetone to contain required quantity of test compounds and allowed to dry. Vehicle control pellets were impregnated with 500 μl acetone.
Rats were made into different groups. Two cotton pellets were surgically implanted into the scapular region of each rat. On sixth day of such implantation, pellets along with granuloma were taken out. Thymus gland was also separated from each animal and weighed. The pellets with granuloma were dried for 20 hrs at 60° C. and weighed. Mean weights of dry granuloma and thymus, body weight gain/100 g body weights were calculated.

Data set [5] relates to liver glycogen deposition. Description: Liver glycogen deposition. Format: in vivo, Male Sprague Dawley rats. Conditions: 3 mg/kg intratracheal, 2 doses 24 hrs apart, adrenalectomized rats.
Data set [6] in a line: Oral bioavailability and systemic plasma half-life. Conditions: in vivo.

`C[C@@H]1CC2C3C[C@H](F)C4=CC(=O)C=C[C@]4(C)[C@@]3(F)[C@@H](O)C[C@]2(C)[C@@]1(OC(=O)c1ccco1)C(=O)SCC#CCOC(=O)CC(C)(C)F` (stereo partly drawn) [Formula I, S-[4-(3-Fluoro-3-methylbutyryloxy)but-2-ynyl]6α,9α-difluoro-17α-(furan-2-yl)carbonyloxy-11β-hydroxy-16α-methyl-3-oxoandrosta-1,4-diene-17β-carbothioate]: in data set [1], the “primary and secondary efficacy endpoints (change in TNSS, TNSS subscales, nasal secretion)” value is recorded as “statistically superior to the placebo”; the “safety profile (treatment-emergent adverse events)” value was “no significant difference in the safety profile”. Besides, the “inhibition of intranasal pressure” value in data set [2] is “equivalent inhibition”. For the same compound, the ED50 – broadly, the dose that gives a 50% effect, or the effect in half of the subjects – at 24 h in data set [3] was 8.7 mg/kg. In data set [4], the ED50 amounted to 0.094 mg/kg. In the data set with cotton pellet granuloma (100 mcg/pellet), the “Mean % Inhibition of Granuloma A” value is on record as 58.13% and the “Thymus wt. (% Decrease) B” value was determined as 4.67%. Further, the “thymus involution and body weight gain (systemic side effect markers)” value with cotton pellet granuloma (even at 100 mcg per pellet) is “insignificant”. Moreover, in data set [5], the “% Inhibition of thymus” value is 26.15%. Besides, the systemic plasma half-life result in data set [6] is given as “short systemic plasma half-life”. In data set [6] (po), the oral bioavailability entry is listed as “low oral bioavailability”.

These data come from patent US9458187B2, “Methods for treatment of inflammatory conditions using S-[4-(3-fleuro-3-methylbutyryloxy)but-2-ynyl]6α, 9α-difluoro-17α-(furan-2-yl) carbonyloxy-11β-hydroxy-16α-methyl-3-oxoandrosta-1,4-diene-17β-carbothioate” (Sun Pharma Advanced Research Company Limited, priority 2013, dated 2016).
